Results: PMC3881423 (Journal of medicinal chemistry, 2013)

Legend:
LSD1 [1] = target: T1, LSD1 (Homo sapiens, UniProt O60341); assay: Microscale thermophoresis; format: binding
[2] = target: purified LSD1 recombinant (Homo sapiens, UniProt O60341)
MAO-A = MAO-A (Homo sapiens, UniProt P21397)
MAO-B = MAO-B (Homo sapiens, UniProt P27338)
LSD1 [3] = target: T1, LSD1; settings: dialyzed against hepes buffer 4°C 24 h
LSD1 [4] = target: T1, LSD1
LSD1 [5] = target: T1, LSD1; settings: monitored at 468nm; data not shown
MGC-803 cells [6] = settings: MGC-803, 0.25 μM
MGC-803 cells [7] = settings: MGC-803, 0.02 μM, 48 h
[8] = target: LSD1-snai1 complex in MGC-803 cells (Homo sapiens, UniProt O60341); settings: MGC-803, 48h; 2-PCPA 100, 250μM

Sequence of MAO-B (P27338 whole entry, species assumed): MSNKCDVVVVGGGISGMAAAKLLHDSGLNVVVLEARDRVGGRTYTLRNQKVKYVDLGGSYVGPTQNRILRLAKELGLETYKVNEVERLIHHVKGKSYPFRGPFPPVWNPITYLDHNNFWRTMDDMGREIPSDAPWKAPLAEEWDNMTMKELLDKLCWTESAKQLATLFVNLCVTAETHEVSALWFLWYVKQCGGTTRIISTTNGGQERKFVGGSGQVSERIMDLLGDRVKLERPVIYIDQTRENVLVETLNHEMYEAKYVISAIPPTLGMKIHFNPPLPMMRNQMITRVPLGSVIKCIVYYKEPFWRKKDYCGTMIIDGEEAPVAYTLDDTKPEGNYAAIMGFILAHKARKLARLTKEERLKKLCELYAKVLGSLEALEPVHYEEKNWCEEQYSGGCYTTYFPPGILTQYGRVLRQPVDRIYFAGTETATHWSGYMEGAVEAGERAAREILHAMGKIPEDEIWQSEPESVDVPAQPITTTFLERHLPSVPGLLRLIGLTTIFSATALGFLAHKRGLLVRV
Sequence of MAO-A (P21397 whole entry, species assumed): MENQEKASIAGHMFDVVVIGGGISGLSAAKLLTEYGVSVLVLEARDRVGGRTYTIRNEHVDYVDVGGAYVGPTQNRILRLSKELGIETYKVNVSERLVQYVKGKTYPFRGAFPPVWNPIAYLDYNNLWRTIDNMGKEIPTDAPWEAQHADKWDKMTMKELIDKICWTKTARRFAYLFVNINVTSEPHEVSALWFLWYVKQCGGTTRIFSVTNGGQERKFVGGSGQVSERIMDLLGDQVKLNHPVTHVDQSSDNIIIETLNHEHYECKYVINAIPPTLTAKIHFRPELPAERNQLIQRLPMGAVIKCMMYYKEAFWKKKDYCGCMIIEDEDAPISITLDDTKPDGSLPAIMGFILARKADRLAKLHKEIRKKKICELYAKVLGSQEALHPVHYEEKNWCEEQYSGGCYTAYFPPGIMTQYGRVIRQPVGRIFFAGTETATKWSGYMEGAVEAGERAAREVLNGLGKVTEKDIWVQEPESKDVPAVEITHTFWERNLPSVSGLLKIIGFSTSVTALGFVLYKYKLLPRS

Compound: Cc1cc2nc3c(=O)[nH]c(=O)nc-3n(C[C@H](O)[C@H](O)[C@H](O)COP(=O)(O)OP(=O)(O)OC[C@H]3O[C@@H](n4cnc5c(N)ncnc54)[C@H](O)[C@@H]3O)c2cc1C [FAD, flavin adenine dinucleotide]
- Kd (LSD1 [1]): 182 nM

Compound: CC(C)(C)OC(=O)N1CCN(C(=S)SCc2cn(CC3=CC(=O)OC3)nn2)CC1 [Compound 51]
- LSD1 inhibitory activity (in words) [2]: complete loss of activity or very weak binding affinity

Compound: CC(C)(C)OC(=O)N1CCN(C(=S)SCc2cn(Cc3ccccc3F)nn2)CC1 [Compound 22, tert Butyl 4-(((1-(2-fluorobenzyl)-1H-1,2,3-triazol-4-yl)methylthio)carbonothioyl)-piperazine-1-carboxylate]
- effect on MAO-A activity (in words) (MAO-A): no significant effects
- effect on MAO-B activity (in words) (MAO-B): no significant effects

Compound: Cc1ccccc1Cn1cc(CSC(=S)N2CCN(C(=O)OC(C)(C)C)CC2)nn1 [Compound 29]
- LSD1 inhibitory activity (in words) [2]: without any detectable activity

Compound: CC(C)(C)OC(=O)N1CCN(C(=S)SCc2cn(Cc3nc4ccccc4[nH]3)nn2)CC1 [Compound 50]
- LSD1 inhibitory activity (in words) [2]: complete loss of activity or very weak binding affinity

Compound: Cc1ccc(Cn2cc(CSC(=S)N3CCN(C(=O)OC(C)(C)C)CC3)nn2)cc1 [Compound 26, tert Butyl 4-(((1-(4-methylbenzyl)-1H-1,2,3-triazol-4-yl)methylthio)carbonothioyl)-piperazine-1-carboxylate]
- effect on MAO-A activity (in words) (MAO-A): no significant effects
- effect on MAO-B activity (in words) (MAO-B): no significant effects
- LSD1 activity after dialysis (LSD1 [3]): the activity can be restored
- mode of inhibition over LSD1 substrate H3K4me2 (LSD1 [4]; FAD 2.5 μM, peptide 10 to 80 μM): non-competitive inhibitor
- mode of inhibition over LSD1 cofactor FAD (LSD1 [4]; peptide 25 μM, FAD 0.6 to 9.0 μM): competitive inhibitor
- amount of FAD in the dialysis tube after dialysis (LSD1 [5]): much less than that in control group
- cell proliferation (MGC-803 cells [6]): cannot inhibit the cell proliferation
- cell migration (MGC-803 cells [7]): significantly inhibited
- binding of LSD1 to snai1 [8]: significantly decreased

Compound: CC(C)(C)OC(=O)N1CCN(C(=S)SCc2cn(Cc3ccc4ccccc4c3)nn2)CC1 [Compound 48]
- LSD1 inhibitory activity (in words) [2]: complete loss of activity or very weak binding affinity

Compound: CC(C)(C)OC(=O)N1CCN(C(=S)SCc2cn(CCOc3cc(=O)oc4ccccc34)nn2)CC1 [Compound 47]
- LSD1 inhibitory activity (in words) [2]: complete loss of activity or very weak binding affinity

Compound: CC(C)(C)OC(=O)N1CCN(C(=S)SCc2cn(Cc3cc(=O)[nH]c4ccccc34)nn2)CC1 [Compound 49]
- LSD1 inhibitory activity (in words) [2]: complete loss of activity or very weak binding affinity
